The assay deals with Human Inducible Nitric Oxide Synthase (Homo sapiens, UniProt P35228). Description: Inhibition of human inducible nitric oxide synthase (formation of L-[3H]citrulline from L-[3H]arginine). The assay is classed as biochemical. The conditions noted are these: 1 μM L-Arg, pH 7.5, room temperature, 30 minutes; for inhibition at 50 µM: 50 μM inhibitor. The source says: J Lowenstein and S. H. Snyder in Methods in Enzymology, Vol. 233, L. Packer, ed., Academic Press, NY, 1994, Ch.26, pp. 264-269.
Various assays for NOS activity have been reported in the literature and are reviewed in the following: M. E. Murphy and E. Noack in Methods in Enzymology, Vol. 233, L. Packer, ed., Academic Press, NY, 1994, Ch.26, pp. 240-250 and J. M. Hevel and M. A. Marletta in Methods in Enzymology, Vol. 233, L. Packer, ed., Academic Press, NY, 1994, Ch.26, pp. 250-258. Details for the assay protocols to measure NOS activity are as follows:
NOS activity is measured as the formation of L-[2,3,4,5-^3 H]Citrullinefrom L-[2,3,4,5-^3 H]Arginine. The incubation buffer (100 μL) contained; 100 mM TES, pH 7.5, 5 μM FAD, 5 μM FMN, 10 μM BH4, 0.5 mM NADPH, 0.5 mM DTT, 0.5 mg/mL BSA, 2 mM CaCl2, 10 μg/mL calmodulin (bovine), 1 μM L-Arg, 0.2 μCi L-[2,3,4,5-^3 H]Arg, and the inhibitor in aqueous DMSO (max. 5 %). The reaction is initiated by addition of enzyme. Incubations are performed at room temperature for 30 minutes and stopped by the addition of an equal volume of quenching buffer consisting of 200 mM sodium citrate, pH 2.2, 0.02% sodium azide. Reaction products are separated by passing through a cation exchange resin and quantitated as cpm by scintillation counting. Percent inhibition is calculated relative to enzyme incubated without inhibitor according to: % inhibition =[…](cpm L-[2,3,4,5-^3 H]Cit with inhibitor/cpm L-[2,3,4,5-^3 H]Cit without inhibitor).

As a reminder, the IC50 is the point on the concentration scale where inhibition reaches its midpoint. A lower IC50 goes with inhibition by little substance. The term inhibition denotes the percentage by which the read-out fell short of the control. High values mean strong suppression, low ones little suppression. `CCN(CC)S(=O)(=O)NC(=O)Nc1cc(C)ccn1` [Example 18] returned a concentration for half-maximal inhibition (IC50) below 1 µM and an inhibition at 50 µM of 92%. As for `C=CCNC(=S)Nc1cc(C)cc(C)n1` [Example 5, N-(2-(4,6-dimethylpyridyl))-N'-allyl-thiourea], the IC50 is below 50 µM and the inhibition at 50 µM was 51%.

On to `CCNC(=S)Nc1cc(C)ccn1` [Example 7, N-(2-(4-Methylpyridyl))-N'-ethyl-thiourea], for which the IC50 is below 10 µM. As for `Cc1ccnc(NC(=S)Nc2cccc(F)c2)c1` [Example 11, N-(2-(4-Methylpyridyl))-N'-(3-fluorophenyl)-thiourea], the IC50 is below 50 µM and 50 µM produced 70% inhibition.

For `Cc1ccnc(NC(=S)NCCC[C@H](N)C(=O)O)c1` [Example 15, N-(2-(4-Methylpyridyl))-N'-(((S)-4-amino-4-carboxy)-n-butyl)-thiourea], the 50% inhibitory concentration (IC50) is below 10 µM and 50 µM produced 85% inhibition. `COC(=O)C(=O)Nc1cc(C)ccn1` [Example 21, Oxalamide, N-(4-methyl-2-pyridyl), methyl ester] returned a concentration for half-maximal inhibition (IC50) below 1 µM. In turn, `S=C(Nc1ccc(Br)cc1)Nc1ccccn1` [Example 9, N-(2-Pyridyl)-N'-(4-bromophenyl)-thiourea] gave an IC50 below 50 µM and an inhibition at 50 µM of 55%.

On to `Cc1ccnc(NC(=S)NCc2ccccc2)c1` [Example 12], for which the IC50 was below 50 µM and the inhibition at 50 µM came out at 76%. `Cc1ccnc(NC(=S)Nc2ccccc2)c1` [Example 8, N-(2-(4-Methylpyridyl))-N'-phenyl-thiourea] came in with an inhibition at 50 µM of 50%.

The compound `Cc1cc(C)nc(NC(N)=S)c1` [Example 3, N-(2-(4,6-dimethylpyridyl))-thiourea] came in with an IC50 below 50 µM and an inhibition at 50 µM of 75%. `Cc1ccnc(NC(=S)NC2CC(C)CC(C)(C)C2)c1` (stereo not shown) [Example 13, N-(2-(4-Methylpyridyl))-N'-(3,3,,5-trimethylcyclohexyl)-thiourea]: the IC50 is below 50 µM and the inhibition at 50 µM came to 57%. For `C=CCNC(=S)Nc1ccc(C(F)(F)F)cn1` [Example 4, N-(2-(5-trifluoromethylpyridyl))-N'-allyl-thiourea], the IC50 was below 10 µM and the inhibition at 50 µM stood at 86%.

For `CCN(CC)S(=O)(=O)NC(=O)Nc1ccc(C)cn1` [Example 19], the IC50 was below 50 µM. Same read-out and setting: then `CCN(CC)S(=O)(=O)N(C)C(=O)Nc1cc(C)ccn1` [Example 20], with below 1 µM. `COC(=O)CC(=O)Nc1cc(C)ccn1` [Example 22, Malonamide, N-(4-methyl-2-pyridyl), methyl ester] registered a half-maximal inhibitory concentration (IC50) above 50 µM and an inhibition at 50 µM of 57%. The compound `Cc1ccnc(NC(=O)NC(=O)c2ccccc2)c1` [Example 14, N-(2-(4-Methylpyridyl))-N'-benzoyl-urea] came in with a half-maximal inhibitory concentration (IC50) below 10 µM and an inhibition at 50 µM of 96%. `CCN(CC)S(=O)(=O)NC(=O)Nc1ncccc1C` [Example 17] came in with an IC50 below 10 µM. In turn, `Cc1ccnc(NC(=S)Nc2cccc3ccccc23)c1` [Example 10, N-(2-(4-Methylpyridyl))-N'-(1-naphthyl)-thiourea] registered an inhibition at 50 µM of 54%. Consider `Cc1ccc(NC(=O)Nc2cc(C)ccn2)cc1` [Example 1, N-(2-(4-Methylpyridyl))-N'-(4-methylphenyl)-urea], for which the IC50 is below 50 µM and 50 µM produced 54% inhibition. The matching figures for `CCN(CC)S(=O)(=O)NC(=O)Nc1ccccn1` [Example 16, N-(2-Pyridyl)-N'-(diethylaminosulfonyl)-urea]: below 10 µM and 55%. `Cc1ccnc(NC(=S)NC(C)C)c1` [Example 6, N-(2-(4-Methylpyridyl))-N'-isopropyl-thiourea]: the IC50 was below 1 µM and the inhibition at 50 µM is 100%. The matching figures for `Cc1ccnc(NC(N)=S)c1` [Example 2, N-(2-(4-Methylpyridyl))-thiourea]: below 50 µM and 63%.

(Values after patent US5908842A, “Substituted 2-acylamino-pyridines as inhibitors of nitric oxide synthase” (Merck & Co., Inc., priority 1997, dated 1999).)
